Reference: ChEMBL document CHEMBL1122862, “Synthesis and antibacterial activity of 2,2'-dithiobis(benzamide) derivatives against Mycobacterium species” (1985)
Values after ≈ are worked out from the molar mass of the structure shown.

Assays:
Assay type in all cases: functional
[1] = system: Mycobacterium tuberculosis; experiment: Tested for antibacterial activity against Mycobacterium tuberculosis H37Rv kanamycin resistant strain
[2] = system: Mycobacterium tuberculosis; experiment: Tested for antibacterial activity against Mycobacterium tuberculosis H37Rv streptomycin resistant strain
[3] = system: Mycobacterium tuberculosis; experiment: Tested for antibacterial activity against Mycobacterium tuberculosis H37Rv isonicotinic acid hydrazide-resistant strain

Row | SMILES | MIC [1] [µg/mL] | MIC [2] [µg/mL] | MIC [3] [µg/mL]
1 | CN[C@@H]1[C@H](O[C@H]2[C@H](O[C@H]3[C@H](O)[C@@H](O)[C@H](N=C(N)N)[C@@H](O)[C@@H]3N=C(N)N)O[C@@H](C)[C@]2(O)C=O)O[C@@H](CO)[C@H](O[C@@H]2O[C@H](CO)[C@@H](O)[C@H](O)[C@@H]2O)[C@H]1O | 3.13 (≈ 4.21 µM) | > 100 | 0.78 (≈ 1.05 µM)
2 | CCCCCC(=O)OCCCNC(=O)c1ccccc1SSc1ccccc1C(=O)NCCCOC(=O)CCCCC | 3.13 (≈ 5.07 µM) | 3.13 (≈ 5.07 µM) | 3.13 (≈ 5.07 µM)
3 | CCOC(=O)CNC(=O)c1ccccc1SSc1ccccc1C(=O)NCC(=O)OCC | 25 (≈ 52.5 µM) | 12.5 (≈ 26.2 µM) | 12.5 (≈ 26.2 µM)
4 | CCCCc1ccc(NC(=O)c2ccccc2SSc2ccccc2C(=O)Nc2ccc(CCCC)cc2)cc1 | 1.56 (≈ 2.74 µM) | 1.56 (≈ 2.74 µM) | 0.78 (≈ 1.37 µM)
5 | O=C(NCC(O)c1ccc(O)c(O)c1)c1ccccc1SSc1ccccc1C(=O)NCC(O)c1ccc(O)c(O)c1 (centres undefined) | 100 (≈ 164 µM) | > 100 | 100 (≈ 164 µM)
6 | O=C(Nc1cccc(C(F)(F)F)c1)c1ccccc1SSc1ccccc1C(=O)Nc1cccc(C(F)(F)F)c1 | 6.25 (≈ 10.5 µM) | 3.13 (≈ 5.28 µM) | 3.13 (≈ 5.28 µM)
7 | O=C1c2ccccc2S(=O)(=O)N1CO | > 100 | 100 (≈ 469 µM) | > 100
8 | O=C(NCc1cccc2ccccc12)c1ccccc1SSc1ccccc1C(=O)NCc1cccc2ccccc12 | > 100 | > 100 | > 100
9 | O=C(Nc1cc2ccccc2cc1O)c1ccccc1SSc1ccccc1C(=O)Nc1cc2ccccc2cc1O | 6.25 (≈ 10.6 µM) | 12.5 (≈ 21.2 µM) | 12.5 (≈ 21.2 µM)
10 | CCn1c2ccccc2c2cc(NC(=O)c3ccccc3SSc3ccccc3C(=O)Nc3ccc4c(c3)c3ccccc3n4CC)ccc21 | 3.13 (≈ 4.53 µM) | 1.56 (≈ 2.26 µM) | 1.56 (≈ 2.26 µM)
11 | O=c1c2ccccc2sn1CO | 12.5 (≈ 69 µM) | 12.5 (≈ 69 µM) | 6.25 (≈ 34.5 µM)
12 | CCCCCCCC(=O)OCCCNC(=O)c1ccccc1SSc1ccccc1C(=O)NCCCOC(=O)CCCCCCC | 0.39 (≈ 0.58 µM) | 0.78 (≈ 1.16 µM) | 0.39 (≈ 0.58 µM)
13 | O=C(Nc1ccc(S(=O)(=O)Nc2nc3ccccc3s2)cc1)c1ccccc1SSc1ccccc1C(=O)Nc1ccc(S(=O)(=O)Nc2nc3ccccc3s2)cc1 | 50 (≈ 56.7 µM) | 100 (≈ 113 µM) | 100 (≈ 113 µM)
14 | CN1CCCN(C(=O)c2ccccc2SSc2ccccc2C(=O)N2CCCN(C)CC2)CC1 | > 100 | > 100 | > 100
15 | O=C(Nc1ccc(Br)c2ccccc12)c1ccccc1SSc1ccccc1C(=O)Nc1ccc(Br)c2ccccc12 | 12.5 (≈ 17.5 µM) | 12.5 (≈ 17.5 µM) | 12.5 (≈ 17.5 µM)
16 | O=C(c1ccccc1SSc1ccccc1C(=O)N1C(=O)c2ccccc2C1=O)N1C(=O)c2ccccc2C1=O | > 100 | > 100 | > 100
17 | CCOc1ccc2nc(NC(=O)c3ccccc3SSc3ccccc3C(=O)Nc3nc4ccc(OCC)cc4s3)sc2c1 | > 100 | > 100 | > 100
18 | CCCCCCCCCCCC(=O)OCCCNC(=O)c1ccccc1SSc1ccccc1C(=O)NCCCOC(=O)CCCCCCCCCCC | 0.78 (≈ 0.993 µM) | 0.78 (≈ 0.993 µM) | 0.78 (≈ 0.993 µM)
19 | CCC(CO)NC(=O)c1ccccc1SSc1ccccc1C(=O)NC(CC)CO (centres undefined) | 12.5 (≈ 27.9 µM) | 12.5 (≈ 27.9 µM) | 12.5 (≈ 27.9 µM)
20 | O=C(Nc1c([N+](=O)[O-])ccc2ccccc12)c1ccccc1SSc1ccccc1C(=O)Nc1c([N+](=O)[O-])ccc2ccccc12 | 50 (≈ 77.3 µM) | 50 (≈ 77.3 µM) | 50 (≈ 77.3 µM)
21 | O=C(c1ccccc1SSc1ccccc1C(=O)n1nnc2ccccc21)n1nnc2ccccc21 | > 100 | > 100 | > 100
22 | O=c1c2ccccc2sn1CCO | 12.5 (≈ 64 µM) | 12.5 (≈ 64 µM) | 12.5 (≈ 64 µM)
23 | CCCCCCCCCCCC(=O)OCCNC(=O)c1ccccc1SSc1ccccc1C(=O)NCCOC(=O)CCCCCCCCCCC | 3.13 (≈ 4.13 µM) | 3.13 (≈ 4.13 µM) | 3.13 (≈ 4.13 µM)
24 | O=C(O)Cc1ccc(NC(=O)c2ccccc2SSc2ccccc2C(=O)Nc2ccc(CC(=O)O)cc2)cc1 | 100 (≈ 175 µM) | 100 (≈ 175 µM) | 100 (≈ 175 µM)

Row | SMILES | MIC [1] [µg/mL] | MIC [2] [µg/mL] | MIC [3] [µg/mL]
25 | O=C(NCc1ccco1)c1ccccc1SSc1ccccc1C(=O)NCc1ccco1 | 12.5 (≈ 26.9 µM) | 12.5 (≈ 26.9 µM) | 12.5 (≈ 26.9 µM)
26 | CCCCC(CC)CNC(=O)c1ccccc1SSc1ccccc1C(=O)NCC(CC)CCCC (centres undefined) | 1.56 (≈ 2.95 µM) | 1.56 (≈ 2.95 µM) | 1.56 (≈ 2.95 µM)
27 | CC(=O)OCCCNC(=O)c1ccccc1SSc1ccccc1C(=O)NCCCOC(C)=O | 12.5 (≈ 24.8 µM) | 12.5 (≈ 24.8 µM) | 6.25 (≈ 12.4 µM)
28 | O=C(Nc1ccc2ccccc2c1)c1ccccc1SSc1ccccc1C(=O)Nc1ccc2ccccc2c1 | 1.56 (≈ 2.8 µM) | 1.56 (≈ 2.8 µM) | 1.56 (≈ 2.8 µM)
29 | CCCCCCCCCCCCCCCCCCCC(=O)OCCCNC(=O)c1ccccc1SSc1ccccc1C(=O)NCCCOC(=O)CCCCCCCCCCCCCCCCCCC | > 100 | > 100 | > 100
30 | CC(O)Cn1sc2ccccc2c1=O (centres undefined) | 12.5 (≈ 59.7 µM) | 12.5 (≈ 59.7 µM) | 12.5 (≈ 59.7 µM)
31 | CCCCCCCCCC(=O)OCCCNC(=O)c1ccccc1SSc1ccccc1C(=O)NCCCOC(=O)CCCCCCCCC | 0.39 (≈ 0.535 µM) | 0.78 (≈ 1.07 µM) | 0.39 (≈ 0.535 µM)
32 | CCNC(=O)OCCNC(=O)c1ccccc1SSc1ccccc1C(=O)NCCOC(=O)NCC | 25 (≈ 46.8 µM) | 25 (≈ 46.8 µM) | 25 (≈ 46.8 µM)
33 | CCOC(=O)c1ccc(NC(=O)c2ccccc2SSc2ccccc2C(=O)Nc2ccc(C(=O)OCC)cc2)cc1 | 6.25 (≈ 10.4 µM) | 3.13 (≈ 5.21 µM) | 3.13 (≈ 5.21 µM)
34 | CC(C)(CO)NC(=O)c1ccccc1SSc1ccccc1C(=O)NC(C)(C)CO | 12.5 (≈ 27.9 µM) | 12.5 (≈ 27.9 µM) | 6.25 (≈ 13.9 µM)
35 | CCCCCCCCCCNC(=O)c1ccccc1SSc1ccccc1C(=O)NCCCCCCCCCC | 6.25 (≈ 10.7 µM) | 3.13 (≈ 5.35 µM) | 3.13 (≈ 5.35 µM)
36 | CCCCCCC(=O)OCCCNC(=O)c1ccccc1SSc1ccccc1C(=O)NCCCOC(=O)CCCCCC | 1.56 (≈ 2.42 µM) | 1.56 (≈ 2.42 µM) | 1.56 (≈ 2.42 µM)
37 | NC(=O)c1ccccc1SSc1ccccc1C(N)=O | 6.25 (≈ 20.5 µM) | 6.25 (≈ 20.5 µM) | 6.25 (≈ 20.5 µM)
38 | O=C(Nc1ccc(Cl)c2ccccc12)c1ccccc1SSc1ccccc1C(=O)Nc1ccc(Cl)c2ccccc12 | 12.5 (≈ 20 µM) | 12.5 (≈ 20 µM) | 12.5 (≈ 20 µM)
39 | CCc1cc(CC)cc(NC(=O)c2ccccc2SSc2ccccc2C(=O)Nc2cc(CC)cc(CC)c2)c1 | > 100 | > 100 | > 100
40 | CCCC(=O)OCCCNC(=O)c1ccccc1SSc1ccccc1C(=O)NCCCOC(=O)CCC | 6.25 (≈ 11.1 µM) | 6.25 (≈ 11.1 µM) | 3.13 (≈ 5.58 µM)
41 | O=C(Nc1cccc2ccc(O)cc12)c1ccccc1SSc1ccccc1C(=O)Nc1cccc2ccc(O)cc12 | 50 (≈ 84.9 µM) | 50 (≈ 84.9 µM) | 12.5 (≈ 21.2 µM)
42 | O=C(Nc1cccc2cccnc12)c1ccccc1SSc1ccccc1C(=O)Nc1cccc2cccnc12 | 50 (≈ 89.5 µM) | 50 (≈ 89.5 µM) | 12.5 (≈ 22.4 µM)
43 | CCC(O)CNC(=O)c1ccccc1SSc1ccccc1C(=O)NCC(O)CC (centres undefined) | 12.5 (≈ 27.9 µM) | 12.5 (≈ 27.9 µM) | 12.5 (≈ 27.9 µM)
44 | CC(O)CNC(=O)c1ccc(SSc2ccc(C(=O)NCC(C)O)cc2)cc1 (centres undefined) | > 100 | > 100 | > 100
45 | CC[C@@H](CO)NCCN[C@@H](CC)CO [ETHAMBUTOL] | 1.56 (≈ 7.64 µM) | 0.78 (≈ 3.82 µM) | 0.78 (≈ 3.82 µM)
46 | NNC(=O)c1ccncc1 [ISONIAZID] | 0.05 (≈ 0.365 µM) | 0.05 (≈ 0.365 µM) | 100 (≈ 729 µM)
47 | NC[C@H]1O[C@H](O[C@H]2[C@H](O)[C@@H](O[C@H]3O[C@H](CO)[C@@H](O)[C@H](N)[C@H]3O)[C@H](N)C[C@@H]2N)[C@H](O)[C@@H](O)[C@@H]1O [KANAMYCIN] | > 100 | 6.25 (≈ 12.9 µM) | 6.25 (≈ 12.9 µM)
48 | CO[C@H]1/C=C/O[C@@]2(C)Oc3c(C)c(O)c4c(O)c(c(/C=N/N5CCN(C)CC5)c(O)c4c3C2=O)NC(=O)/C(C)=C\C=C\[C@H](C)[C@H](O)[C@@H](C)[C@@H](O)[C@@H](C)[C@H](OC(C)=O)[C@@H]1C [RIFAMPIN] | 0.05 (≈ 0.0608 µM) | 0.025 (≈ 0.0304 µM) | 0.025 (≈ 0.0304 µM)
